Source: patent publication US4535075A, “Dithiolane derivative, process for producing the same and use thereof” (Nihon Nohyaku Co., Ltd., priority 1982, dated 1985)

What was measured:
[1] = test system: liver damage induced by carbon tetrachloride; assay: Protective (Controlling) effect on liver damage induced by carbon tetrachloride; format: in vivo, mice (dd strain); details: 250 mg/kg p.o., CCl4 0.05 ml/kg after 6 h, 24 h; for p-GPT: CCl4 alone >2,100; for Liver Damage Index: average of 5 mice, 0 Normal, 2 Slightly recognized, 4 Clearly observable damage, 6 Heavy damage, CCl4 alone 5.0
Source text: Protective (Controlling) Effect on liver damage induced by carbon tetrachloride.
Carbon tetrachloride administration induces centrilobular necrosis of the liver associated with loss of diphosphopyridine nucleotide, hepatic glycogen, coenzyme A and increase in neutral fat. Release of several enzymes from the hepatocytes, and increases of enzyme activities in the plasma are recognized as the result of the damage of the liver.
A suitable means for evaluating the degree induced by carbon tetrachloride or the degree of protection afforded by drugs is to study the plasma glutamic-pyruvic transaminase (p-GPT) activity. […]
After 6 hours, carbon tetrachloride was administered orally 0.05 ml/kg.
Animals were killed 24 hours after carbon tetrachloride administration, and the liver was grossly observed.
The plasma was obtained by centrifugation. Activity of p-GPT were determined by the method of Reitman and Frankel and expressed in Karmen units.
Score for liver damage index was as follows:
1 Each figure indicated average of 5 mice.

[2] = test system: liver damage induced by α-naphthyl isothiocyanate (ANIT); assay: Protective effect on liver damage induced by ANIT (Method 1); format: in vivo, mice; details: 2 x 250 mg/kg p.o., ANIT 35 mg/kg p.o., 24 h
Source text: (§1) Protective effect on liver damage induced by α-naphthyl isothiocyanate (referred to as "ANIT", hereinafter).
It is well known that experimental cholestasis is accomplished by administration with ANIT in mice and rats, and studied as a cholestasis model in human being.
ANIT and CCl4 induce necrosis in the liver. ANIT causes it as small focci in perilobular parenchyna and CCl4 causes centrilobular parenchymal coagulation necrosis.
From these information, the elevation of plasma GPT activity in these models are thought to have defferent characteristics.
Test compounds, dissolved or suspended in olive oil or diethyleneglycol, were orally administered 2 times at intervals of 3 hrs to mice at the dose of 250 mg/kg. At 3 hrs after the second administration with test compounds, ANIT was administered orally at 35 mg/kg.
Mice were sacrificed at 24 hrs after ANIT administration and blood samples were collected. The blood samples were centrifuged and plasma was obtained.
Plasma GPT activity and alkaline phosphatase activity were determined by Reitman & Frankel's method and Bessey-Lowry's method, respectively. The activity was expressed with Karmen Unit and Bessey-Lowry Unit, respectively.

[3] = test system: liver damage induced by α-naphthyl isothiocyanate (ANIT); assay: Protective effect on liver damage induced by ANIT (Method 2); format: in vivo, mice (dd strain); details: Table 3-3, 250 mg/kg p.o., ANIT 35 mg/kg p.o. after 6 h, 24 h; for Alkaline phosphatase activity: control 2.9, ANIT alone >9.6; for p-GPT: control 17.5, ANIT alone >460.2
Method: as §1
Test compounds, dissolved or suspended in olive oil or diethyleneglycol, were orally administered at the dose of 250 mg/kg to the mice (Six or Seven-week-old male mice-dd strain).
After 6 hours, ANIT dissolved in olive oil, was aministered orally at 35 mg/kg.
Mice were sacrificed at 24 hours after ANIT administration and blood samples were collected. The blood samples were centrifuged and plasma was obtained.
Plasma GPT activity and alkaline phosphatase activity were determined by Reitman & Frankel's method and Bessey-Lowry's method, respectively.
The activity was expressed with Karmen Unit and Bessey-Lowry Unit, respectively.

[4] = Table 3-1, control 3.3, ANIT alone 5.3
[5] = Table 3-1, control 7.4, ANIT alone 324.0

SMILES | p-GPT [1] [Karmen units] | Liver Damage Index [1] | Alkaline phosphatase activity [2, 4] [B-L.V.] | p-GPT [2, 5] [K.U.] | Alkaline phosphatase activity ([2]; Table 3-2, ANIT alone 5.3) [B-L.V.] | p-GPT ([2]; Table 3-2, ANIT alone >653.7) [K.U.] | Alkaline phosphatase activity [3] [B-L.V.] | p-GPT [3] [K.U.]
CCCCOC(=O)C(C(=O)OCCCC)=C1SC(O)C(O)S1 (stereo not shown) [Compound 4] | 18 | 0.0 | 3.3 | 26.8 | – | – | – | –
CCC(C)OC(=O)C(C(=O)OC(C)CC)=C1SC(O)C(O)S1 (stereo not shown) [Compound 6] | 21 | 0.0 | 4.9 | 142.0 | – | – | – | –
CC(C)(C)OC(=O)C(C(=O)OC(C)(C)C)=C1SC(O)C(O)S1 (stereo not shown) [Compound 7] | 90 | 0.0 | – | – | 3.5 | 422.8 | – | –
CC(C)CCOC(=O)C(C(=O)OCCC(C)C)=C1SC(O)C(O)S1 (stereo not shown) [Compound 9] | 47 | 0.0 | – | – | 3.4 | 27.2 | – | –
O=C(OC1CCCCC1)C(C(=O)OC1CCCCC1)=C1SC(O)C(O)S1 (stereo not shown) [Compound 10] | 72 | 0.0 | – | – | 4.9 | 363.7 | – | –
O=C(OCc1ccccc1)C(C(=O)OCc1ccccc1)=C1SC(O)C(O)S1 (stereo not shown) [Compound 11] | 33 | 0.0 | – | – | 4.3 | 437.5 | – | –
C#CCOC(=O)C(C(=O)OCC#C)=C1SC(O)C(O)S1 (stereo not shown) [Compound 13] | 30 | 0.0 | – | – | 4.5 | 265.6 | – | –
COCCOC(=O)C(C(=O)OCCOC)=C1SC(O)C(O)S1 (stereo not shown) [Compound 14] | 56 | 0.2 | – | – | 3.1 | 11.5 | – | –
COCC(C)OC(=O)C(C(=O)OC(C)COC)=C1SC(O)C(O)S1 (stereo not shown) [Compound 15, bis(3-methoxypropan-2-yl)4,5-dihydroxy-1,3-dithiolan-2-ylidenemalonate] | 39 | 0.0 | – | – | 3.7 | 134.5 | – | –
CCC(COC)OC(=O)C(C(=O)OC(CC)COC)=C1SC(O)C(O)S1 (stereo not shown) [Compound 16] | 30 | 0.2 | – | – | 5.0 | 275.2 | – | –
CCCOC(=O)C(C(=O)OCC)=C1SC(O)C(O)S1 (stereo not shown) [Compound 17] | 40 | 0.6 | 4.8 | 242.0 | – | – | – | –
CCCCOC(=O)C(C(=O)OCC)=C1SC(O)C(O)S1 (stereo not shown) [Compound 18] | 28 | 0.0 | 4.8 | 180.8 | – | – | – | –
CCOC(=O)C(C(=O)OCC(C)C)=C1SC(O)C(O)S1 (stereo not shown) [Compound 19] | 9 | 0.4 | 5.1 | 170.5 | – | – | – | –
CCCOC(=O)C(C(=O)OC(C)C)=C1SC(O)C(O)S1 (stereo not shown) [Compound 20] | 30 | 0.4 | 4.0 | 163.4 | – | – | – | –
CCCCOC(=O)C(C(=O)OC(C)C)=C1SC(O)C(O)S1 (stereo not shown) [Compound 21] | 9 | 0.0 | 4.5 | 293.1 | – | – | – | –
CC(C)COC(=O)C(C(=O)OC(C)C)=C1SC(O)C(O)S1 (stereo not shown) [Compound 22] | 9 | 0.0 | 5.0 | 221.0 | – | – | – | –
COC(=O)C(C(C)=O)=C1SC(O)C(O)S1 (stereo not shown) [Compound 34] | 31 | 0.0 | – | – | – | – | 4.2 | 32.7
CCOC(=O)C(C(C)=O)=C1SC(O)C(O)S1 (stereo not shown) [Compound 35] | 92 | 0.0 | – | – | – | – | 4.6 | > 245.0

SMILES | p-GPT [1] [Karmen units] | Liver Damage Index [1] | Alkaline phosphatase activity [2, 4] [B-L.V.] | p-GPT [2, 5] [K.U.] | Alkaline phosphatase activity ([2]; Table 3-2, ANIT alone 5.3) [B-L.V.] | p-GPT ([2]; Table 3-2, ANIT alone >653.7) [K.U.] | Alkaline phosphatase activity [3] [B-L.V.] | p-GPT [3] [K.U.]
CCCOC(=O)C(C(C)=O)=C1SC(O)C(O)S1 (stereo not shown) [Compound 36] | 30 | 0.2 | – | – | – | – | 3.9 | 60.0
CC(=O)C(C(=O)OC(C)C)=C1SC(O)C(O)S1 (stereo not shown) [Compound 37, isopropyl 4,5-dihydroxy-1,3-dithiolan-2-ylideneacetoacetate] | 149 | 0.4 | – | – | – | – | 4.4 | 177.4
CCCCOC(=O)C(C(C)=O)=C1SC(O)C(O)S1 (stereo not shown) [Compound 38] | 31 | 0.0 | – | – | – | – | 5.3 | 29.4
CC(=O)C(C(=O)OCC(C)C)=C1SC(O)C(O)S1 (stereo not shown) [Compound 39] | 19 | 0.2 | – | – | – | – | 6.8 | 70.7
CCC(C)OC(=O)C(C(C)=O)=C1SC(O)C(O)S1 (stereo not shown) [Compound 40] | 172 | 0.4 | – | – | – | – | 5.2 | 272.5
CCOC(=O)C(C(=O)C(C)C)=C1SC2OC(=O)OC2S1 (stereo not shown) [Compound 102] | 48.5 | 1.2 | – | – | – | – | – | –
CCCCC(=O)C(C(=O)OCC)=C1SC2OC(=O)OC2S1 (stereo not shown) [Compound 103] | 14.7 | 0 | – | – | – | – | – | –
CCOC(=O)C(C(=O)CC(C)C)=C1SC2OC(=O)OC2S1 (stereo not shown) [Compound 104] | 17.6 | 0 | – | – | – | – | – | –
CCCCCCC(=O)C(C(=O)OCC)=C1SC2OC(=O)OC2S1 (stereo not shown) [Compound 105] | 107.4 | 1.6 | – | – | – | – | – | –
CCOC(=O)C(C(=O)Cc1ccccc1)=C1SC2OC(=O)OC2S1 (stereo not shown) [Compound 106] | 602.2 | 1.0 | – | – | – | – | – | –
CCOC(=O)C(C(=O)OCC)=C1SC2OC(=S)OC2S1 (stereo not shown) [Compound 107] | 42.6 | 0.6 | – | – | – | – | – | –
CCCOC(=O)C(C(=O)OCCC)=C1SC2OC(=S)OC2S1 (stereo not shown) [Compound 108] | 31.0 | 0 | – | – | – | – | – | –
CC(C)OC(=O)C(C(=O)OC(C)C)=C1SC2OC(=S)OC2S1 (stereo not shown) [Compound 109] | 139.3 | 0.4 | – | – | – | – | – | –
CC(C)COC(=O)C(C(=O)OCC(C)C)=C1SC2OC(=S)OC2S1 (stereo not shown) [Compound 110] | 554.7 | 1.2 | – | – | – | – | – | –
CCC(C)OC(=O)C(C(=O)OC(C)CC)=C1SC2OC(=S)OC2S1 (stereo not shown) [Compound 111] | 18.6 | 0.8 | – | – | – | – | – | –
C=CCOC(=O)C(C(=O)OCC=C)=C1SC2OC(=S)OC2S1 (stereo not shown) [Compound 112, 7-bis(allyloxycarbonyl)methylene-3-thioxo-2,4-dioxa-6,8-dithiabicyclo[3,3,0]octane] | 20.2 | 0.6 | – | – | – | – | – | –
C#CCOC(=O)C(C(=O)OCC#C)=C1SC2OC(=S)OC2S1 (stereo not shown) [Compound 113] | 13.3 | 0.6 | – | – | – | – | – | –
CC(C)OC(=O)C(C(=O)OC(C)C)=C1SCC(O)S1 (stereo not shown) [Compound A, reference compound] | – | – | – | – | 8.5 | > 755.0 | – | –
